How the values were obtained:
[1] = tested on: 22Rv1 tumors; test: Micro-PET imaging in 22Rv1 tumor-bearing mice; assay type: in vivo; settings: 22Rv1 tumor, 60 min p.i., 7.4 MBq
Description: (§1) The animal studies were approved by the institutional animal care and use committee of the Chinese PLA General Hospital. Healthy male ICR mice were injected with either a novel radiotracer (37 MBq in 150 μL) or saline (150 μL) for the radiotoxicity evaluation. […] Biodistribution and micro-PET studies were performed on 22Rv1 and PC-3 xenograft models, and 2-PMPA was used as the PSMA blocker (all details are shown in the Supplementary Materials).
Table S9. Tumor-to-mu scle (T/M) ratio and tumor- to-kidney (T/K) rati o of radiotracers at 60 min p.i.
The Mice bearing 22Rv1 and PC-3 (n = 3/group) xenograft tumors were […]
Co-injection with 2-PMPA (50 μ g) and each novel tracer (7.4 MBq in 150 μL) was used for blocking. Then the mice were anesthetized with 3% (v/v) isoflurane and underwent Micro-PET scans with continuous 1% (v/v) isoflurane. The images were acquired at 60 min p.i.. In comparison, […]
into another group of mice (n = 3), and Micro-PET schedule was performed as […]
Imaging was performed on a Super Nova PET/CT scanner using a 100-mm-transaxial field of view for PET and 110-mm for CT.
Three-dimensional ordered-subsets expectation maximization reconstruction

[2] = tested on: 22Rv1 cells (mild PSMA+); test: Cell uptake / binding in 22Rv1 cells; assay type: cell-based, human; settings: 60 min incubation, 37 °C
Description: Cell lines were kindly provided by the stem cell bank of the Chinese Academy of Sciences. The human prostate cancer epithelial cell lines 22Rv1 (mild PSMA+) and PC-3 (with no PSMA receptor) were used to evaluate the specific cell-binding affinity of the radiotracers, and the results were expressed as percentages of injected activity, IA%/10^6.
Cell Lines and Culture Condition
Cell lines were kindly provided by the stem cell bank, the Chinese Academy of Sciences. The human prostate cancer cell lines 22Rv1 ( mild PSMA positive) and PC3 (PSMA negative) were cultured in RPMI 1640 medium or F12K medium (CORNING, America), supplemented with 10% Fetal Bovine Serum
(GIBCO, The Netherlands) and 1% penicillin-streptomycin (CORNING, America) in a humidified incubator at 37 °C under 5% CO2. Each cell line was passaged when it was at around 80-90% confluence, and harvested using trypsin-ethylenediaminetetraacetic acid (trypsin-EDTA; 0.25% trypsin, 0.02% EDTA, all from KeyGEN BioTECH).
Cells were seeded separately in 24 well plates (1 x 10^5 cells in 1 mL medium/well) and incubated overnight, the medium was changed 2 h before the experiment. For the binding experiments, cells were incubated with novel […]
min, 30 min and 60 min (6 wells/time point). After incubation, the medium was removed and the cells were washed twice with ice-cold phosphate-buffered saline (0.5 mL). Finally, the cells were lysed by NaOH (0.5 M, 0.5 mL). Coincubation of 2-(phosphonomethyl) pentane-1,5-dioic acid […]
(2-PMPA) solution (2 μg/well) and each radiotracer for 60 min was conducted as the blocking experiment. The radioactivity of cells was measured by a γ-counter. The studies were performed in triplicate and the results were reported as the percentage injected activity (IA%/10^6 cells). […]

[3] = Blood pharmacokinetics in male ICR mice; assay type: in vivo; settings: 7.4 MBq i.v., two-compartment model
Description: Injection of novel radiotracers or [68Ga]Ga-PSMA-617 or [68Ga]Ga-PSMA-11 […]
mice (5 mice/group), and the blood sample (5 μL) of each mouse was collected by cutting down the tail end at different time points post injection. The radioactivity of blood samples were measured by a γ-counter and the pharmacokinetics data was calculated using the WinNonlin software.
Figure S3. Time-activity curves of the blood samplesafter injection of 7.4 MBq of [68Ga]Ga-PSMA-4PY (A), [68Ga]Ga-PSMA-Q (B),[68Ga]Ga-PSMA-P (C), [68Ga]Ga-PSMA-617 (D), [68Ga]Ga-PSMA-11 (E), [68Ga]Ga-PSMA-Q-1 (F), [68Ga]Ga-PSMA-Q-2 (G) and [68Ga]Ga-PSMA-Q-3 (H).
(1 picture or pasted object on this page, not shown here)

[4] = tested on: 22Rv1 tumor-bearing mice; test: Biodistribution in 22Rv1 tumor-bearing mice; settings: for Uptake Blood, Mean / Uptake Bone, Mean / Uptake Heart, Mean / Uptake Kidney, Mean / Uptake Liver, Mean / Uptake Lung, Mean / Uptake Muscle, Mean / Uptake Spleen, Mean / Uptake Tumor (22Rv1), Mean: 0.74 MBq, n = 3; for Clearance profile in the kidneys: within 60 min p.i.
Description: as §1
BALB/c nude mice (male, 4-6 weeks) were inoculated subcutaneously with […]
100 mm3, the mice underwent biodistribution study and Micro-PET imaging.
The 22Rv1 tumor-bearing mice were injected with each novel radiotracer or […]
[…] Mice were sacrificed at different time points p.i. (10 min, 30 min, 60 min), tumors and interested organs were harvested, weighed and measured by a γ-counter, the results were expressed as the percentage of injected dose per gram (ID%/g).
Table S1. Uptake values for ex vivo tissues of [ 68Ga]Ga-PSMA-Q (0.74 MBq/mice) in 22Rv1 tumor-bearing mice (10, 30 and 60 min p.i., n = 3/time point).

[5] = Partition coefficient, octanol–water system; assay type: physicochemical; settings: octanol–water (v/v = 1:1), n = 3
Description: The partition coefficient of each novel radiotracer was determined using an octanol–water system (v/v = 1:1). The in vitro stability was determined using two systems (PBS and 5% BSA). The Ki value was measured by the NAALADase assay. The 22Rv1 and PC-3 cell lines were used for the cell-binding study and establishment of the tumor-bearing model (detailed information is shown in the Supplementary Materials).
PBS) and reported as log p ± SD. […]

[6] = biodistribution, 22Rv1 tumor-bearing mice, 60 min p.i.

Row | Compound | SUVmax of tumor [1] | Uptake in 22Rv1 cells [2] [IA%/10^6] | Elimination half-life [3] [min] | Uptake Blood, Mean ([4]; 10 min p.i.) [ID%/g] | Uptake Bone, Mean ([4]; 10 min p.i.) [ID%/g] | Uptake Heart, Mean ([4]; 10 min p.i.) [ID%/g] | Uptake Kidney, Mean ([4]; 10 min p.i.) [ID%/g] | Uptake Liver, Mean ([4]; 10 min p.i.) [ID%/g] | Uptake Lung, Mean ([4]; 10 min p.i.) [ID%/g] | Uptake Muscle, Mean ([4]; 10 min p.i.) [ID%/g] | Uptake Spleen, Mean ([4]; 10 min p.i.) [ID%/g] | Uptake Tumor (22Rv1), Mean ([4]; 10 min p.i.) [ID%/g] | Uptake Blood, Mean ([4]; 30 min p.i.) [ID%/g] | Uptake Bone, Mean ([4]; 30 min p.i.) [ID%/g] | Uptake Kidney, Mean ([4]; 30 min p.i.) [ID%/g] | Uptake Liver, Mean ([4]; 30 min p.i.) [ID%/g] | Uptake Lung, Mean ([4]; 30 min p.i.) [ID%/g] | Uptake Muscle, Mean ([4]; 30 min p.i.) [ID%/g] | Uptake Spleen, Mean ([4]; 30 min p.i.) [ID%/g] | Uptake Tumor (22Rv1), Mean ([4]; 30 min p.i.) [ID%/g] | other results
1 | O=C([O-])CN1CCN(CC(=O)[O-])CCN(CC(=O)NCC2CCC(C(=O)NC(Cc3ccncc3)C(=O)NCCCCC(NC(=O)NC(CCC(=O)O)C(=O)O)C(=O)O)CC2)CCN(CC(=O)O)CC1.[68Ga+3] (stereo not shown) [[^68Ga]Ga-PSMA-4PY] | 0.69 ± 0.26 | 3.01 ± 0.47 | 15.15 ± 0.32 | 1.68 | 0.56 | 1.87 | 2.15 | 1.53 | 0.83 | 0.67 | 0.59 | 1.56 | 0.68 | 0.28 | 2.08 | 0.78 | 0.50 | 0.31 | 0.47 | 1.83 | Uptake Heart, Mean ([4]; 30 min p.i.): 0.86 ID%/g; Uptake Blood, Mean ([4]; 60 min p.i.): 0.21 ID%/g; Uptake Bone, Mean ([4]; 60 min p.i.): 0.21 ID%/g; Uptake Heart, Mean ([4]; 60 min p.i.): 0.58 ID%/g; Uptake Liver, Mean ([4]; 60 min p.i.): 0.47 ID%/g; Uptake Lung, Mean ([4]; 60 min p.i.): 0.25 ID%/g; Uptake Muscle, Mean ([4]; 60 min p.i.): 0.14 ID%/g; Uptake Spleen, Mean ([4]; 60 min p.i.): 0.33 ID%/g; Uptake Tumor (22Rv1), Mean ([4]; 60 min p.i.): 2.15 ID%/g; Uptake Tumor (22Rv1), Mean ([4]; 60 min p.i., listed as [^68Ga]Ga-PSMA-Q-4PY): 2.15 ± 0.46 ID%/g; Clearance profile in the kidneys [4]: remained relatively stable; Log p pH = 7.4 [5]: −3.49 ± 0.01
2 | O=C([O-])CN1CCN(CC(=O)[O-])CCN(CC(=O)NCc2ccc(C(=O)NC(Cc3cnc4ccccc4c3)C(=O)NCCCCC(NC(=O)NC(CCC(=O)O)C(=O)O)C(=O)O)cc2)CCN(CC(=O)O)CC1.[68Ga+3] (stereo not shown) [[^68Ga]Ga-PSMA-Q-3] | 0.88 ± 0.18 | 3.31 ± 0.49 | 25.72 ± 1.87 | 1.68 | 0.67 | 1.87 | 21.45 | 1.53 | 0.83 | 0.72 | 1.12 | 1.88 | 0.72 | 0.33 | 13.88 | 1.18 | 0.53 | 0.40 | 0.94 | 2.77 | Uptake Heart, Mean ([4]; 30 min p.i.): 1.29 ID%/g; Uptake Blood, Mean ([4]; 60 min p.i.): 0.34 ID%/g; Uptake Bone, Mean ([4]; 60 min p.i.): 0.23 ID%/g; Uptake Heart, Mean ([4]; 60 min p.i.): 1.11 ID%/g; Uptake Kidney, Mean ([4]; 60 min p.i.): 2.65 ID%/g; Uptake Lung, Mean ([4]; 60 min p.i.): 0.43 ID%/g; Uptake Muscle, Mean ([4]; 60 min p.i.): 0.19 ID%/g; Uptake Spleen, Mean ([4]; 60 min p.i.): 0.59 ID%/g; Uptake Tumor (22Rv1), Mean ([4]; 60 min p.i.): 3.31 ± 0.29 ID%/g; Uptake Tumor (22Rv1), Mean ([4]; 60 min p.i., listed as [68Ga]Ga-PSMA-Q-3): 3.31 ID%/g; Clearance profile in the kidneys [4]: washed out rapidly from the kidneys; Log p pH = 7.4 [5]: −2.99 ± 0.33
3 | O=C([O-])CN1CCN(CC(=O)[O-])CCN(CC(=O)NCCCCCC(=O)NC(Cc2cnc3ccccc3c2)C(=O)NCCCCC(NC(=O)NC(CCC(=O)O)C(=O)O)C(=O)O)CCN(CC(=O)O)CC1.[68Ga+3] (stereo not shown) [[^68Ga]Ga-PSMA-Q-2] | 0.47 ± 0.11 | 2.99 ± 0.15 | 20.22 ± 0.97 | 1.87 | 1.12 | 1.76 | 13.88 | 1.62 | 0.83 | 0.65 | 2.34 | 1.34 | 0.69 | 0.71 | 20.74 | 1.21 | 0.61 | 0.37 | 1.41 | 1.87 | Uptake Heart, Mean ([4]; 30 min p.i.): 1.08 ID%/g; Uptake Blood, Mean ([4]; 60 min p.i.): 0.47 ID%/g; Uptake Bone, Mean ([4]; 60 min p.i.): 0.53 ID%/g; Uptake Heart, Mean ([4]; 60 min p.i.): 0.50 ID%/g; Uptake Kidney, Mean ([4]; 60 min p.i.): 26.62 ID%/g; Uptake Liver, Mean ([4]; 60 min p.i.): 0.52 ID%/g; Uptake Lung, Mean ([4]; 60 min p.i.): 0.55 ID%/g; Uptake Muscle, Mean ([4]; 60 min p.i.): 0.16 ID%/g; Uptake Spleen, Mean ([4]; 60 min p.i.): 1.05 ID%/g; Uptake Tumor (22Rv1), Mean ([4]; 60 min p.i.): 2.15 ± 0.33 ID%/g; Uptake Tumor (22Rv1), Mean ([4]; 60 min p.i., listed as [68Ga]Ga-PSMA-Q-2): 2.15 ID%/g; Tumor-to-kidney (T/K) ratio [4, 6]: 0.08 ± 0.02; Tumor-to-muscle (T/M) ratio [4, 6]: 13.41 ± 0.39; Clearance profile in the kidneys [4]: continuously accumulated in the kidneys
4 | O=C([O-])CN(CCN(CC(=O)[O-])Cc1cc(CCC(=O)NCCCCCC(=O)NCCCC[C@H](NC(=O)N[C@@H](CCC(=O)O)C(=O)O)C(=O)O)ccc1[O-])Cc1cc(CCC(=O)O)ccc1[O-].[68Ga+3].[OH3+] [[^68Ga]Ga-PSMA-11, reference compound] | 0.76 ± 0.18 | 3.19 ± 0.27 | 16.69 ± 1.77 | 2.28 | 0.72 | 2.54 | 10.20 | 1.53 | 0.77 | 0.81 | 0.99 | 1.61 | 0.91 | 0.30 | 2.76 | 0.78 | 0.53 | 0.30 | 0.53 | 1.90 | Uptake Blood, Mean ([4]; 60 min p.i.): 0.22 ID%/g; Uptake Bone, Mean ([4]; 60 min p.i.): 0.17 ID%/g; Uptake Heart, Mean ([4]; 60 min p.i.): 0.53 ID%/g; Uptake Kidney, Mean ([4]; 60 min p.i.): 1.61 ID%/g; Uptake Liver, Mean ([4]; 60 min p.i.): 0.47 ID%/g; Uptake Lung, Mean ([4]; 60 min p.i.): 0.21 ID%/g; Uptake Muscle, Mean ([4]; 60 min p.i.): 0.14 ID%/g; Uptake Spleen, Mean ([4]; 60 min p.i.): 0.40 ID%/g; Uptake Tumor (22Rv1), Mean ([4]; 60 min p.i.): 2.38 ID%/g
